Results on 1 compound are retold here after US20060211744A1, “3-Pyridinecarboxamide reduces nerve degeneration” (Children's Medical Center, priority 2005, published 2006).

Assay [1] concerns cultured DRG neurons (transected axons). Briefly: Axon degeneration after transection of axons of cultured DRG neurons (Wallerian degeneration). It counts as cell-based. The following applies: sirturin inhibitors; nicotinamide at 50 μM. The procedure: As a first step in examining the role of NAD in Wallerian degeneration, we used an ultra-sensitive high-performance liquid chromatography (HPLC) method (Micheli and Sestini, 1997) to measure the concentration of NAD and its derivatives in degenerating axons. To do this, the acidic lysates were prepared from axonal segments collected at different time points after transecting the axons from cultured dorsal root ganglia (DRG) and resolved by reverse-phase chromatography. 2 hr after axotomy, when the transected axons were still morphologically indistinguishable from their uncut controls, NAD levels began to decrease. This NAD decrease continued over the course of degeneration, reaching about 50% at 4 hr post-axotomy, to almost undetectable levels by 6 hr after axotomy, when early morphological signs of degeneration began to develop. […] By a similar approach of alkaline extraction (Micheli and Sestini, 1997), it has been difficult for us to detect NADH in the axonal extracts, presumably due to the low abundance of NADH and the high NAD/NADH ratio reported in mammalian cells (Zhang et al., 2002, Kasischke et al., 2004, Kannurpatti et al., 2004).
To definitively determine whether preventing the local decrease in NAD levels could mediate axon protection, we employed soma-free axonal segments that have been separated from their soma as models to examine the protective effects of different pharmacological treatments. It has been shown that exogenously provided NAD, when directly added to the culture medium of DRG neurons, can be transported across the axonal membrane (Araki et al., 2004). Thus, we first examined the protective effects of different concentrations of NAD added to the culture before or after axon transection and removal of ganglia.
To further assess the local and nuclear contribution to such an NAD-dependent protection, we compared the protective effects of NAD provided at different time points. […] In this respect, our results are inconsistent with those shown by Araki et al (2004), possibly due to the different concentrations of NAD used in our studies (1-20 mM) and by Araki et al (0.1 to 1 mM).
We next attempted to explore the possible mechanisms underlying this local NAD-dependent axon protection. […] A possible explanation for this discrepancy between Araki et al (2004) and our results is the different approaches used to block Sirt1 activity. […] It is known that […], other sirturins exist and some of these proteins are localized in the cytoplasmic compartment (Onyango et al., 2002; North et al., 2003).

In assay [2] the test system is EAE mice (wild type or Wlds). The experiment in a line: Mouse EAE model, subcutaneous nicotinamide (Example 9 end, Example 12). The assay is classed as in vivo. The following applies: for reduction of neural degeneration in EAE mice: daily from day of MOG immunization. The procedure:
In initial experiments, we administered nicotinamide daily starting from the day of immunization by MOG peptide, and found efficacy in both 125 mg/kg and 500 mg/kg treatment groups. We have also examined groups of mice wherein initiation of nicotinamide administration was delayed until 10 days after the immunization by MOG peptide (delayed treatment group), to better model clinical conditions wherein patients typically begin treatment after onset of pathogenic autoimmunity.
In this example we administered NAm by daily subcutaneous injection at two different dosages (125 or 500 mg/kg, dissolved by PBS) starting from the day of MOG immunization. As a control, we administered the same volume of PBS into either wild type or Wld^s mice. The EAE models were induced following essentially the procedure described in Kalyvas et al (2004, Neuron 41, 323-335). Other protocols were adapted from Wang, et al. (2005) J. Cell. Biol. 170: 349-355.
We started treatments with NAm (500 mg/kg, daily subcutaneous injection) from 10 days P.I. when most of the animals already have clear clinical symptoms.

Assay [3] has as its system cultured hippocampal neurons. The experiment in a line: Synaptic loss and process degeneration in cultured hippocampal neurons (dominant-negative Nmnat1). The assay is classed as cell-based. The following applies: 50-200 μM, up to 72 hr. From the text: We next attempted to examine whether decreasing NAD levels can induce similar “dying-back” axon degeneration in neurons with established synaptic connections. Such experiments might allow us to assess whether the degenerative processes in axons and other neuronal structures, including synaptic structures and dendritic processes, share similar mechanisms. To do this, we introduced both wild type and dominant negative Nmnat1 into cultured hippocampal neurons at 20 days in vitro (DIV 20), when their synaptic connections have formed and matured (Brewer et al. 1993), and examined their effects on axons as well as dendrites and synapses. As a conventional approach to visualize these neuronal structures, we also co-infected the hippocampal neurons with HSV expressing YFP. […] Moreover, neuronal NAD levels declined from 24-48 hr post-infection with viruses expressing dominant-negative Nmnat1 but not wild type Nmnat1 or YFP. Thus, we decided to focus our analysis on the first 60 hours post-infection.
To monitor changes in synaptic structures, we co-infected DIV20 neurons with HSV expressing YFP and wild type or the mutant Nmnat1, and quantified both spine density and the length and branching of axons and dendrites. As the density of dendritic spines has been considered a reliable indicator for synapse number (reviewed by Hering and Sheng, 2001), we performed high-resolution YFP imaging in neurons co-expressing YFP and Nmnat1 proteins at the indicated time points post-infection to measure the spine densities in these co-infected neurons. Dendrite length and branching patterns were analyzed using Sholl's method of regularly spaced concentric circles centered on the neuronal soma (Sholl, 1953). […]
In the experiments described above, we also performed immunostaining with antibodies against the presynaptic marker bassoon, and found a decrease of positively-stained synaptic structures. However, due to the complex morphology of the axons that makes it extremely difficult to quantify the axonal length in DIV20 hippocampal neurons, we […]. […]

Setting [4] is: 500 mg/kg daily s.c. from 10 days P.I.

For the compound `NC(=O)c1cccnc1` [nicotinamide, 3-pyridinecarboxamide], the “attenuation of the protective effect of Nmnat1 or NAD” value in assay [1] was “did not attenuate the protective effect”. Further, the “NAD levels, delayed treatment” value in assay [2] (setting [4]) is “increased NAD levels effectively”. For the same compound, the “further development of EAE symptoms, delayed treatment” value in assay [2] (setting [4]) was “efficiently attenuated further development of EAE symptoms”. Moreover, the “number of degenerating axons, delayed treatment” value in assay [2] (500 mg/kg daily s.c. from 10 days P.I., 8 weeks P.I.) is listed as “significantly reduced the number of degenerating axons”. Also, the “degenerating axons detected compared with untreated animals” value is recorded as around 5% in assay [2] (Wlds mice, high dose) and “approximately 10%” in assay [2] (wild type mice, high dose). The “effect on EAE symptoms” value in assay [2] (Wlds mice, high dose 500 mg/kg) was “More dramatic improvements”. Besides, the “NAD levels at 2 and 4 weeks P.I.” value in assay [2] (Wlds mice, high dose (500 mg/kg) s.c.) is “remained at high levels”. For the same compound, the “axons remaining morphologically intact (Toluidine Blue)” value in assay [2] (Wlds mice, high dose, 8 weeks P.I.) was around 90%; in assay [2] (wild type mice, high dose, 8 weeks P.I. (control wild type EAE 25%)), “approximately 70%”. Besides, the “NAD levels at 2 weeks P.I.” value in assay [2] (daily s.c. 125 or 500 mg/kg from day of MOG immunization) is recorded as “dramatically increased NAD levels in a dose-dependent manner”. In addition, the “reduction of neural degeneration in EAE mice” value in assay [2] (subcutaneous, 125 mg/kg) is listed as “efficacy”; in assay [2] (subcutaneous, 500 mg/kg) it was “efficacy”. In addition, the “neural degeneration versus matched controls, delayed treatment group” value in assay [2] (subcutaneous, started 10 days after MOG immunization) is “reduced neural degeneration”. Moreover, in assay [2] (wild type EAE mice, high dose), the “axons in peripheral regions of the spinal cord” value is reported as “increased numbers of demyelinated but preserved axons”. For the same compound, in assay [2] (wild type and Wlds mice, 2, 4 and 8 weeks P.I.), the “numbers of SMI-32-positive axons” value is listed as “significantly reduced numbers”. Also, in assay [2] (wild type mice, 125 or 500 mg/kg s.c. daily), the “onset and development of EAE symptoms” value was “ameliorated the onset and development of EAE symptoms in a dose-dependent manner”. In assay [2] (wild type mice, continuous daily s.c. administration), the “NAD levels at 4 weeks P.I.” value is on record as “returned to near-normal levels”. For the same compound, the “effect on EAE onset and severity” value in assay [2] (wild type mice, high dose 500 mg/kg) was “significant improvement”. Moreover, the “dendritic spine quantity or structure, compound alone” value in assay [3] is recorded as “did not induce significant changes”.
